Experimental data published in PMC8958510 (Journal of Medicinal Chemistry, 2022).

System: SAMP8 mice
Experiment: Novel object recognition test (NORT) in SAMP8 mice
Assay type: in vivo, mouse
Settings: 2 mg kg^–1 day^–1 oral, 4 weeks, vs vehicle-treated
Source text: In Vivo Proof-of-Concept of the Dual sEH / AChE Inhibitor […] in SAMP8 Mice Animals and treatment. The senescence-accelerated mouse-prone 8 (SAMP8) is an accelerated aging model established through phenotypic selection from AKR/J mice by […]
abnormal APP and β-amyloid processing and tau pathology, among others. Likewise, SAMP8 […]
and oxidative stress markers are present at early ages and during adultness.15 In this work, 5-month-old male SAMP8 mice were used to perform behavioral and molecular analyses.
Animals were randomly divided into SAMP8 control (n=8) and SAMP8 treated with 12c […]
(n=8, 2 mg kg‒1 day‒1). The animals had free access to food and water and were kept under standard temperature conditions (22 ± 2 °C) and 12-h/12-h light/dark cycles (300 lux/0 lux).
Compound 12c was dissolved in 1.8% (2-hydroxypropyl)-β-cyclodextrin (Sigma-Aldrich, St.
Louis, MO) and administered through drinking water for 4 weeks (Figure S6 of the Supporting Information). Control groups received water plus 1.8% (2-hydroxypropyl)-β-cyclodextrin during the treatment period. […]
had been replaced by a novel one. The behavior was recorded, and the time that the mice spent exploring the new object (TN) and the old one (TO) were measured manually. […]
The discrimination index (DI) was calculated as (TN‒TO)/(TN+TO). […]

O=C(Nc1ccc(OC(F)(F)F)cc1)NC1CCN(C(=O)CCCCNc2c3c(nc4cc(Cl)ccc24)CCCC3)CC1 [12c, 1-{1-{5-[(6-Chloro-1,2,3,4-tetrahydroacridin-9-yl)amino]pentanoyl}piperidin-4-yl}-3-[4-(trifluoromethoxy)phenyl]urea]
short-term working memory (NORT discrimination index) (2 h retention): significantly ameliorated | long-term working memory (NORT discrimination index) (24 h retention): significantly ameliorated
